Molecular target: T1, human TRH-DE (Homo sapiens, UniProt Q9UKU6)
T1 construct: expressed in transfected cells; host or cells: Expi 293 cells (transient expression), membrane fraction
T1 sequence (Q9UKU6 1-1069): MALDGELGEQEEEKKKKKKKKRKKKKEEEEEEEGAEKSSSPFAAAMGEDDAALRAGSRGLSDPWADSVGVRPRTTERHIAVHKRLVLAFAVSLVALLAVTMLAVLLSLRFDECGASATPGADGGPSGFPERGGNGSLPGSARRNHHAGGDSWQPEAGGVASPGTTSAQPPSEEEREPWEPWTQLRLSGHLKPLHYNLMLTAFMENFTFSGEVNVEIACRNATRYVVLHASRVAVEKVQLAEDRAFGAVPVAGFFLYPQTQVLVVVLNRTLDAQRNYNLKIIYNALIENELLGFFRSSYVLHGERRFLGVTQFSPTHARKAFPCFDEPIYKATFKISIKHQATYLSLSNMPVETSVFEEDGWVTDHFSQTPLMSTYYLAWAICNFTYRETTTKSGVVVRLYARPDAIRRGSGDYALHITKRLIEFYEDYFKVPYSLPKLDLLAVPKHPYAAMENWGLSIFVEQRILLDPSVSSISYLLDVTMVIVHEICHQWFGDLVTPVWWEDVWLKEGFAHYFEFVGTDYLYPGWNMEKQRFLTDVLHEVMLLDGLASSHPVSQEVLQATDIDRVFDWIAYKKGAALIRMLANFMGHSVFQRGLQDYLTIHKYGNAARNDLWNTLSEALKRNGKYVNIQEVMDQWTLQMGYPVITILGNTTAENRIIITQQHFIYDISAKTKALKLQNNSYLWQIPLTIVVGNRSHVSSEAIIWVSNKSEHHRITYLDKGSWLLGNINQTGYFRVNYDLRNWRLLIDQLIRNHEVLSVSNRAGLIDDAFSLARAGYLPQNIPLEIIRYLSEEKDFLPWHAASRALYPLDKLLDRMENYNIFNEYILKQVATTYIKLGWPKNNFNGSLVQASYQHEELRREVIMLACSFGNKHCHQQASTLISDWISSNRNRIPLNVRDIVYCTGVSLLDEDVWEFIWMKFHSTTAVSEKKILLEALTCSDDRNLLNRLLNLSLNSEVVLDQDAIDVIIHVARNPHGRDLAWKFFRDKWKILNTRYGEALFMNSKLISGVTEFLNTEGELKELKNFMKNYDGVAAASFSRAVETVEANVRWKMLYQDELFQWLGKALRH
Experiment: TRH-DE inhibition test (RapidFire MS measurement of product Cyclo (His-Pro))
Format: biochemical
Conditions: membrane fraction of Expi 293 cells expressing human TRH-DE; 10 μM TRH substrate; room temperature, 2 hours; 16-point concentration test
Method in brief: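 Inhibition derived from product/internal-standard ratios of Cyclo(His-Pro), quantified by RapidFire triple-quadrupole MS after acetonitrile:methanol quench, with IC50 fitted over 16 concentrations. Enzyme source: membranes of Expi 293 cells transiently expressing human TRH-DE, 4 μg/ml, pH 7.4 phosphate buffer. Incubation with 10 μM substrate ran 2 h at room temperature.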

| Compound | IC50 |
| --- | --- |
| CC1(C)Oc2cc(Cl)ncc2C(=O)N1C1CC2(C1)CN(S(=O)(=O)c1ccccc1F)C2 [Example 344, 7-chloro-3-[2-(2-fluorophenyl)sulfonyl-2-azaspiro[3.3]heptan-6-yl]-2,2-dimethyl-pyrido[3,4-e][1,3]oxazin-4-one] | 75 nM |
| C[C@@H]1Cn2c(ccc2C(F)(F)F)C(=O)N1C1CC2(C1)CN(S(=O)(=O)c1ccccc1F)C2 [Example 345, (3R)-2-[2-(2-fluorophenyl)sulfonyl-2-azaspiro[3.3]heptan-6-yl]-3-methyl-6-(trifluoromethyl)-3,4-dihydropyrrolo[1,2-a]pyrazin-1-one] | 167 nM |
| C[C@@H]1CNc2nc(C(F)(F)F)ccc2C(=O)N1C1CC2(C1)CN(S(=O)(=O)c1ccccc1F)C2 [Example 346, (3R)-4-[2-(2-fluorophenyl)sulfonyl-2-azaspiro[3.3]heptan-6-yl]-3-methyl-8-(trifluoromethyl)-2,3-dihydro-1H-pyrido[2,3-e][1,4]diazepin-5-one] | 2 nM |
| Cc1nc2c(s1)C(C)N(C1CC3(C1)CN(S(=O)(=O)c1ccccc1F)C3)C2=O (stereo not shown) [Example 347] | 185 nM |
| C[C@@H]1COc2nc(C3CCC3)ncc2C(=O)N1C1CC2(C1)CN(S(=O)(=O)c1ccccc1F)C2 [Example 367] | 8 nM |
| CCc1ncc2c(n1)OC[C@@H](C)N(C1CC3(C1)CN(S(=O)(=O)c1ccccc1F)C3)C2=O [Example 368] | 13 nM |
| CC(C)Oc1ncc2c(n1)OC[C@@H](C)N(C1CC3(C1)CN(S(=O)(=O)c1ccccc1F)C3)C2=O [Example 369, (7R)-6-[2-(2-fluorophenyl)sulfonyl-2-azaspiro[3.3]heptan-6-yl]-7-methyl-2-propan-2-yloxy-7,8-dihydropyrimid[5,4-f][1,4]oxazepin-5-one] | 8 nM |
| COc1ncc2c(n1)OC[C@@H](C)N(C1CC3(C1)CN(S(=O)(=O)c1ccccc1F)C3)C2=O [Example 370] | 8 nM |
| C[C@@H]1COc2nc(OC3CCC3)ncc2C(=O)N1C1CC2(C1)CN(S(=O)(=O)c1ccccc1F)C2 [Example 371] | 5 nM |
| C[C@@H]1COc2nc(OC3CCCC3)ncc2C(=O)N1C1CC2(C1)CN(S(=O)(=O)c1ccccc1F)C2 [Example 372] | 4 nM |
| C[C@@H]1COc2nc(OC3CC3)ncc2C(=O)N1C1CC2(C1)CN(S(=O)(=O)c1ccccc1F)C2 [Example 373] | 5 nM |
| CCOc1ncc2c(n1)OC[C@@H](C)N(C1CC3(C1)CN(S(=O)(=O)c1ccccc1F)C3)C2=O [Example 374] | 8 nM |
| C[C@@H]1COc2nc(OC3CCOCC3)ncc2C(=O)N1C1CC2(C1)CN(S(=O)(=O)c1ccccc1F)C2 [Example 375] | 11 nM |
| C[C@@H]1COc2nc(O[C@@H]3CCOC3)ncc2C(=O)N1C1CC2(C1)CN(S(=O)(=O)c1ccccc1F)C2 [Example 376] | 21 nM |
| C[C@@H]1COc2nc(O[C@H]3CCOC3)ncc2C(=O)N1C1CC2(C1)CN(S(=O)(=O)c1ccccc1F)C2 [Example 377] | 14 nM |
| C[C@@H]1COc2nc(N(C)C)ncc2C(=O)N1C1CC2(C1)CN(S(=O)(=O)c1ccccc1F)C2 [Example 380] | 3 nM |
| C[C@@H]1COc2nc(N3CCCC3)ncc2C(=O)N1C1CC2(C1)CN(S(=O)(=O)c1ccccc1F)C2 [Example 381] | 2 nM |
| C[C@@H]1COc2nc(N3CCCCC3)ncc2C(=O)N1C1CC2(C1)CN(S(=O)(=O)c1ccccc1F)C2 [Example 382] | 4 nM |
| C[C@@H]1COc2nc(N3CCOCC3)ncc2C(=O)N1C1CC2(C1)CN(S(=O)(=O)c1ccccc1F)C2 [Example 383] | 11 nM |
| C[C@@H]1COc2nc(N3CCCOCC3)ncc2C(=O)N1C1CC2(C1)CN(S(=O)(=O)c1ccccc1F)C2 [Example 384] | 5 nM |
| COC1CCN(c2ncc3c(n2)OC[C@@H](C)N(C2CC4(C2)CN(S(=O)(=O)c2ccccc2F)C4)C3=O)CC1 [Example 387] | 4 nM |
| C[C@@H]1COc2nc(N3C[C@H]4COC[C@H]4C3)ncc2C(=O)N1C1CC2(C1)CN(S(=O)(=O)c1ccccc1F)C2 [Example 388] | 4 nM |
| C[C@@H]1COc2nc(N3[C@@H]4CC[C@H]3COC4)ncc2C(=O)N1C1CC2(C1)CN(S(=O)(=O)c1ccccc1F)C2 [Example 389] | 12 nM |
| C[C@@H]1COc2nc(N3[C@@H]4CCC[C@H]3COC4)ncc2C(=O)N1C1CC2(C1)CN(S(=O)(=O)c1ccccc1F)C2 [Example 390] | 11 nM |
| C[C@@H]1COc2nc(N3CCOC(F)(F)C3)ncc2C(=O)N1C1CC2(C1)CN(S(=O)(=O)c1ccccc1F)C2 [Example 391] | 4 nM |
| C[C@@H]1COc2nc(N3[C@@H]4COC[C@H]3C4)ncc2C(=O)N1C1CC2(C1)CN(S(=O)(=O)c1ccccc1F)C2 [Example 392] | 3 nM |

The next lines start with the values.

| IC50 | Compound |
| --- | --- |
| 3 nM | CO[C@H]1CCN(c2ncc3c(n2)OC[C@@H](C)N(C2CC4(C2)CN(S(=O)(=O)c2ccccc2F)C4)C3=O)C1 [Example 393] |
| 4 nM | CO[C@@H]1CCN(c2ncc3c(n2)OC[C@@H](C)N(C2CC4(C2)CN(S(=O)(=O)c2ccccc2F)C4)C3=O)C1 [Example 394] |
| 3 nM | C[C@@H]1COc2nc(N3CCC3)ncc2C(=O)N1C1CC2(C1)CN(S(=O)(=O)c1ccccc1F)C2 [Example 395] |
| 5 nM | C[C@@H]1COc2nc(N3C[C@H]4C[C@@H]3CO4)ncc2C(=O)N1C1CC2(C1)CN(S(=O)(=O)c1ccccc1F)C2 [Example 396] |
| 7 nM | C[C@@H]1COc2nc(N3C[C@@H]4C[C@H]3CO4)ncc2C(=O)N1C1CC2(C1)CN(S(=O)(=O)c1ccccc1F)C2 [Example 397] |
| 2 nM | C[C@@H]1COc2nc(N3C[C@H]4C[C@@H](C3)O4)ncc2C(=O)N1C1CC2(C1)CN(S(=O)(=O)c1ccccc1F)C2 [Example 398] |
| 5 nM | C[C@@H]1COc2nc(N3CC(F)C3)ncc2C(=O)N1C1CC2(C1)CN(S(=O)(=O)c1ccccc1F)C2 [Example 399] |
| 2 nM | C[C@@H]1COc2nc(N3CC[C@H](C#N)C3)ncc2C(=O)N1C1CC2(C1)CN(S(=O)(=O)c1ccccc1F)C2 [Example 401] |
| 3 nM | C[C@@H]1COc2nc(N3CC[C@@H](C#N)C3)ncc2C(=O)N1C1CC2(C1)CN(S(=O)(=O)c1ccccc1F)C2 [Example 402] |
| 3 nM | C[C@@H]1COc2nc(N3C[C@H]4C[C@@H]3C4)ncc2C(=O)N1C1CC2(C1)CN(S(=O)(=O)c1ccccc1F)C2 [Example 403] |
| 4 nM | C[C@@H]1COc2nc(N3CC(C(F)(F)F)C3)ncc2C(=O)N1C1CC2(C1)CN(S(=O)(=O)c1ccccc1F)C2 [Example 404] |
| 5 nM | C[C@@H]1COc2nc(N3CC4(COC4)C3)ncc2C(=O)N1C1CC2(C1)CN(S(=O)(=O)c1ccccc1F)C2 [Example 407] |
| 4 nM | C[C@@H]1COc2nc(N3CC4(CCOC4)C3)ncc2C(=O)N1C1CC2(C1)CN(S(=O)(=O)c1ccccc1F)C2 [Example 408] |
| 4 nM | C[C@@H]1COc2nc(NC3CC3)ncc2C(=O)N1C1CC2(C1)CN(S(=O)(=O)c1ccccc1F)C2 [Example 409] |
| 5 nM | CC(C)Nc1ncc2c(n1)OC[C@@H](C)N(C1CC3(C1)CN(S(=O)(=O)c1ccccc1F)C3)C2=O [Example 410] |
| 8 nM | C[C@@H]1COc2nc(N3CC(C#N)C3)ncc2C(=O)N1C1CC2(C1)CN(S(=O)(=O)c1ccccc1F)C2 [Example 411] |
| 16 nM | C[C@@H]1COc2nc(N3C[C@H]4CC[C@@H](C3)O4)ncc2C(=O)N1C1CC2(C1)CN(S(=O)(=O)c1ccccc1F)C2 [Example 412] |
